One block for each compound: values may come before it. The source made the active and inactive calls. The rule behind the calls is not given here.
Experiments:
[1] = system: hERG; assay: in vitro; conditions: human, membranes expressing human ERG, probe Tracer Red
[2] = system: Plasmodium falciparum; assay: microbe, parasite or virus in culture; conditions: 3D7, 72 h
[3] = target: Voltage-gated inwardly rectifying potassium channel KCNH2 (Homo sapiens, UniProt Q12809)
[4] = system: Plasmodium falciparum
[5] = target: Plasmepsin 4 (Plasmodium falciparum, UniProt Q17SB2); assay: Inhibition of Plasmodium falciparum plasmepsin 4 using EDANS-CO-CH2-CH2-CO-ALERMFLSFP-Dap(DABCYL)OH as substrate measured after 60 mins by fluorescence assay
Chain of Plasmepsin 4 (Q17SB2 whole entry): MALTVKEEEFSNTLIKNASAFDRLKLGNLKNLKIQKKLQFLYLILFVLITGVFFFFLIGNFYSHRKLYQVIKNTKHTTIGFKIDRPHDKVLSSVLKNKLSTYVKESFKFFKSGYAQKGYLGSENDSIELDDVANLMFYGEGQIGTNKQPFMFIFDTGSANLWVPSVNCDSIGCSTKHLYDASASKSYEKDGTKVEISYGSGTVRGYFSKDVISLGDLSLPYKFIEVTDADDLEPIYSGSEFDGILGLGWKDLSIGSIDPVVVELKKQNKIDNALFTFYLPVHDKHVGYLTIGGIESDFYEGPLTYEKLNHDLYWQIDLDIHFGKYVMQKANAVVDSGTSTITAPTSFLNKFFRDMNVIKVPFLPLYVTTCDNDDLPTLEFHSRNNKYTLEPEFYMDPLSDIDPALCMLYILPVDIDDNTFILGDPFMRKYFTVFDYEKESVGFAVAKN

[6] = Intrinsic clearance in mouse liver microsomes at 1 uM measured after 30 mins in presence of NADPH by LC-MS/MS analysis; format: ADME, Microsome; conditions: 0.5 h
[7] = Half life in mouse liver microsomes at 1 uM measured after 30 mins in presence of NADPH by LC-MS/MS analysis; format: ADME, Microsome; conditions: for t1/2: microsomes, 0.5 h, 1 µM
[8] = target: Plasmepsin II (Plasmodium falciparum, UniProt P46925); assay: Inhibition of Plasmodium falciparum plasmepsin 2 using EDANS-CO-CH2-CH2-CO-ALERMFLSFP-Dap(DABCYL)OH as substrate measured after 60 mins by fluorescence assay
Chain of Plasmepsin II (P46925 whole entry): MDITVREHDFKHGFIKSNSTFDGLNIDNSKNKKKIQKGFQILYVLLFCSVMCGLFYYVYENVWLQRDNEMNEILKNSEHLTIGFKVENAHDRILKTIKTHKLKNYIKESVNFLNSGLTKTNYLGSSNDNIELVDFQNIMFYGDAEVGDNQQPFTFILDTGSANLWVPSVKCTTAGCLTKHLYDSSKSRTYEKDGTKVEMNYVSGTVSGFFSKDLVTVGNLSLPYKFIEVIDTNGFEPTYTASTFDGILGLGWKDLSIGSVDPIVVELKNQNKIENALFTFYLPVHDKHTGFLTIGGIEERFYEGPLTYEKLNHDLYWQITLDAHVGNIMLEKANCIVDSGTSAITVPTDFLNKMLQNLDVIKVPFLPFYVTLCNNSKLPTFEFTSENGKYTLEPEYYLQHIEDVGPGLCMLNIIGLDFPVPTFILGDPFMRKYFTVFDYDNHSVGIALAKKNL

[9] = target: Beta-secretase 1 (Homo sapiens, UniProt P56817); assay: Inhibition of recombinant human C-terminal His10-tagged BACE1 using Mca-SEVNLDAEFRK(Dpn)RR-NH2 as substrate measured after 60 mins by TR-FRET assay
Chain of Beta-secretase 1 (P56817 whole entry): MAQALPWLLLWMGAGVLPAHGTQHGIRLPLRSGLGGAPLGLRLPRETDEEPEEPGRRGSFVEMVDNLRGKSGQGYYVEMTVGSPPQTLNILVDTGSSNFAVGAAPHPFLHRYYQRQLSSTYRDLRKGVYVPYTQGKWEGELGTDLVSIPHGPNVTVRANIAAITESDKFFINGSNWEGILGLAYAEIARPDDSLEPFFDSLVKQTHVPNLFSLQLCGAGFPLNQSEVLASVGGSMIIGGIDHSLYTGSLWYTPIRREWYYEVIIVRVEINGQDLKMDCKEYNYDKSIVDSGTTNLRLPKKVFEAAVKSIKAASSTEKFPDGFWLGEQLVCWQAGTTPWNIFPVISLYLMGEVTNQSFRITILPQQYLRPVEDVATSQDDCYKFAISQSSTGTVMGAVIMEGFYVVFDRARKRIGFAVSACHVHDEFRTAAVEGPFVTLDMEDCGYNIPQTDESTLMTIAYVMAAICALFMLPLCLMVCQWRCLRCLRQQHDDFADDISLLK

[10] = Apparent volume of distribution in mouse at 2 mg/kg, iv by LC-MS analysis; format: ADME, organism-based; conditions: in vivo, read-out: Vz
[11] = Oral bioavailability in mouse at 5 mg/kg by LC-MS analysis; conditions: in vivo
[12] = Half life in mouse at 2 mg/kg, iv by LC-MS analysis; format: ADME, organism-based; conditions: in vivo
[13] = Apparent clearance in mouse at 2 mg/kg, iv by LC-MS analysis; format: ADME, organism-based; conditions: in vivo, read-out: CL(app)
[14] = target: Plasmepsin V (Plasmodium falciparum (isolate 3D7)) (UniProt Q8I6Z5); assay: Inhibition of Plasmodium falciparum plasmepsin 5 by knockdown assay
Chain of Plasmepsin V (Plasmodium falciparum (isolate 3D7)) (Q8I6Z5 whole entry, looked up): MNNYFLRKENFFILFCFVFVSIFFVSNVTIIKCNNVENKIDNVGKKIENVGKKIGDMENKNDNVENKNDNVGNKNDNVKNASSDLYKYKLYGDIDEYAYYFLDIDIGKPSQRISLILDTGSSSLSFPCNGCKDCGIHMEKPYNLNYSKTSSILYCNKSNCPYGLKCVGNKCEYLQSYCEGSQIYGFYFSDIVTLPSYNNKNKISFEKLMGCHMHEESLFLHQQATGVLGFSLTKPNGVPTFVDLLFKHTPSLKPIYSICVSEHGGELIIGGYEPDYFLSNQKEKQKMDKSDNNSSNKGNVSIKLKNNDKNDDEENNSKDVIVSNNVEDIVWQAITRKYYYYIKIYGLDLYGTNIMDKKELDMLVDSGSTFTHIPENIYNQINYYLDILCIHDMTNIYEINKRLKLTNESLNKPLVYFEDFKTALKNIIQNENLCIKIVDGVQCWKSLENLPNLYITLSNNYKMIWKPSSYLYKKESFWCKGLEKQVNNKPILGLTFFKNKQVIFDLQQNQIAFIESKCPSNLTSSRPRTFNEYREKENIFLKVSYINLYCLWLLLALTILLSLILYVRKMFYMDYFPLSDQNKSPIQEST

[15] = system: Plasmodium falciparum; assay: Inhibition of Plasmodium falciparum plasmepsin 9 by Western blot analysis
[16] = system: HepG2; assay: Cytotoxicity against human HepG2 cells measured after 72 hrs by PrestoBlue cell viability reagent based assay; conditions: HepG2, 72 h
[17] = system: Plasmodium falciparum; assay: Inhibition of Plasmodium falciparum plasmepsin 10 by Western blot analysis
[18] = Apparent volume of distribution in mouse at 1 mg/kg, iv by LC-MS analysis; format: ADME, organism-based; conditions: in vivo, read-out: Vz
[19] = Half life in mouse at 1 mg/kg, iv by LC-MS analysis; format: ADME, organism-based; conditions: in vivo
[20] = Apparent clearance in mouse at 1 mg/kg, iv by LC-MS analysis; format: ADME, organism-based; conditions: in vivo, read-out: CL(app)
[21] = system: Plasmodium chabaudi; assay: Antimalarial activity against chloroquine-resistant Plasmodium chabaudi ASCQ infected in NIH mouse assessed as inhibition of parasitemia at 10 mg/kg, po administered once daily for 4 days starting from 4 hrs post-infection and measured on day 4 by Peter's 4 day test relative to control; format: functional

Chain of Voltage-gated inwardly rectifying potassium channel KCNH2 (Q12809 whole entry): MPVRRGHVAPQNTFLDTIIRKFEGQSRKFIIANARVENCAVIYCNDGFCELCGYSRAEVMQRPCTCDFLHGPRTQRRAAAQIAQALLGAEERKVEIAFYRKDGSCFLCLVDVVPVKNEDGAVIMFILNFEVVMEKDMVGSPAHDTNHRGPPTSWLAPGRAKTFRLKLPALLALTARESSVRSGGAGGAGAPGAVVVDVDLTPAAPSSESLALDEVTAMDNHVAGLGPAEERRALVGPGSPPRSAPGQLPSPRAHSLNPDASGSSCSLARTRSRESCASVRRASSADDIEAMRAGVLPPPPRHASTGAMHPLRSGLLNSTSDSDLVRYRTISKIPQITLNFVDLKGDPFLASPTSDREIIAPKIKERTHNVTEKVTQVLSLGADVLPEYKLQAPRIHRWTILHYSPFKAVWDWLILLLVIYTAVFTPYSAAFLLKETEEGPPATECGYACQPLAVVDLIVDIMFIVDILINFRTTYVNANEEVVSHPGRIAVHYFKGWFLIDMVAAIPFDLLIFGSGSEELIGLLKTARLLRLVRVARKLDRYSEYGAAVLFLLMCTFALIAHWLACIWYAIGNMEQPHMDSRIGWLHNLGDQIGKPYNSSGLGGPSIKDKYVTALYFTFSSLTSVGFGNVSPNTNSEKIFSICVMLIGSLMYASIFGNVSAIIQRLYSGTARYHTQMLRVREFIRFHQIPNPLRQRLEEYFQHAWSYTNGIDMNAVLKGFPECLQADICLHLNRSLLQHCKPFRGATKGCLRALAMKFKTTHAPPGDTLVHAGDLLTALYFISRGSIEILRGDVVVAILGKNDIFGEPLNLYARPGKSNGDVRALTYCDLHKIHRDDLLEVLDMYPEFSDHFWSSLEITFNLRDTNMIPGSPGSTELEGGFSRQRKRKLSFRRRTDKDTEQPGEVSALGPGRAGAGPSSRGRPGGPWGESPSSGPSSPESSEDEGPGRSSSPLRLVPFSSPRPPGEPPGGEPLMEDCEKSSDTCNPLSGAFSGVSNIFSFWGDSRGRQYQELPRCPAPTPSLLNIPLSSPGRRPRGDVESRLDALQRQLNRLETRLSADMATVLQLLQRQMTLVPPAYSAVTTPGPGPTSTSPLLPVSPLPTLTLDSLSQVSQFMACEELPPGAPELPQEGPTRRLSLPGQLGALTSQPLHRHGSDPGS

Compound: C[C@H](NC(=O)[C@H]1CNC[C@@H]1c1ccc(C(F)(F)F)nc1)c1ccc(N(C)C)cc1
- selectivity ratio [1]: > 357
- IC50 [2]: 140 nM
- IC50 [3]: > 50000 nM

Compound: CN(C)c1ccc(CNC(=O)[C@H]2CNC[C@@H]2c2ccc(C(F)(F)F)nc2)cc1
- IC50 [4]: 116 nM

Compound: C[C@H](NC(=O)[C@@H]1CNC[C@H]1c1ccc(C(F)(F)F)cc1)c1ccc(N(C)C)cc1
- IC50 [2]: 130 nM

Compound: O=C(NCc1ccc(C(F)(F)F)nc1)[C@H]1CNC[C@@H]1c1ccc(C(F)(F)F)nc1
- IC50 [2]: 18000 nM

Compound: CN(C)c1ccc(CNC(=O)[C@H]2CNC[C@@H]2c2ccc(C(F)(F)F)cc2)cc1 (racemic)
- IC50 [5]: > 10000 nM
- IC50 [2]: 200 nM
- Intrinsic clearance (CLint) [6]: 6.2 µL/min/mg
- IC50 [3]: 9410 nM
- t1/2 [7]: 35 min
- IC50 [8]: > 10000 nM
- IC50 [9]: > 10000 nM

Compound: Cc1ccc([C@@H]2CNC[C@H]2C(=O)NCc2ccc(N(C)C)cc2)cc1Cl (racemic)
- IC50 [2]: 230 nM

Compound: CN(C)c1ccc(CNC(=O)[C@H]2CNC[C@@H]2c2ccc3ccsc3c2)cc1 (racemic)
- IC50 [2]: 240 nM

Compound: CN(C)c1ccc(CNC(=O)[C@@H]2CNC[C@H]2c2ccc(Oc3ccccc3)cc2)cc1 (racemic)
- IC50 [5]: > 10000 nM
- IC50 [2]: 170 nM
- Intrinsic clearance (CLint) [6]: 7.2 µL/min/mg
- IC50 [3]: 2110 nM
- t1/2 [7]: 31 min
- IC50 [8]: > 10000 nM
- IC50 [9]: > 10000 nM

Compound: CN(C)c1ccc(CNC(=O)[C@@H]2CNC[C@H]2c2ccc(Cl)cc2)cc1 (racemic)
- IC50 [2]: 680 nM

Compound: CN(C)c1ccc(CNC(=O)[C@H]2CNC[C@@H]2c2ccc(C(F)(F)F)nc2)cc1 (racemic)
- Vd [10]: 3.2 L/kg
- bioavailability [11]: 13%
- IC50 [5]: > 10000 nM
- half-life [12]: 396 min
- IC50 [2]: 230 to 250 nM
- Intrinsic clearance (CLint) [6]: 3.1 µL/min/mg
- IC50 [3]: 21700 nM
- t1/2 [7]: 70 min
- IC50 [8]: > 10000 nM
- clearance [13]: 5.9 mL/min/kg
- IC50 [9]: > 10000 nM

Compound: CN(C)c1ccc(CNC(=O)[C@@H]2CNC[C@H]2c2ccc(C(F)(F)F)c(F)c2)cc1 (racemic)
- IC50 [5]: > 10000 nM
- IC50 [2]: 140 nM
- Intrinsic clearance (CLint) [6]: 6.4 µL/min/mg
- IC50 [3]: 8540 nM
- t1/2 [7]: 34 min
- IC50 [8]: > 10000 nM
- IC50 [9]: > 10000 nM

Compound: CCN(CC)c1ccc(CNC(=O)[C@@H]2CNC[C@H]2c2ccc(C(F)(F)F)cc2)cc1 (racemic)
- IC50 [5]: > 10000 nM
- IC50 [2]: 600 nM
- IC50 [3]: 4740 nM
- IC50 [8]: > 10000 nM
- IC50 [9]: > 10000 nM

Compound: CN(C)c1ccc(CNC(=O)[C@@H]2CNC[C@H]2CCc2ccc(C(F)(F)F)cc2)cc1 (racemic)
- IC50 [2]: 4400 nM

Compound: Cc1ccc(CNC(=O)[C@@H]2CNC[C@H]2c2ccc(C(F)(F)F)cc2)cc1 (racemic)
- IC50 [5]: > 10000 nM
- Vd [18]: 7.3 L/kg
- half-life [19]: 102 min
- IC50 [2]: 460 nM
- Intrinsic clearance (CLint) [6]: 1.4 µL/min/mg
- t1/2 [7]: 161 min
- clearance [20]: 52 mL/min/kg
- IC50 [8]: > 10000 nM
- IC50 [9]: > 10000 nM

Compound: Cc1ccc([C@@H]2CNC[C@H]2C(=O)NCc2ccc(N(C)C)cc2)cc1 (racemic)
- IC50 [2]: 750 nM

Compound: CN(C)c1ccc(CNC(=O)[C@H]2CNC[C@@H]2c2cccc(S(F)(F)(F)(F)F)c2)cc1 (racemic)
- IC50 [2]: 410 nM

Compound: CN(C)c1ccc(CNC(=O)[C@@H]2CNC[C@H]2c2ccc(C(F)(F)F)c(Cl)c2)cc1 (racemic)
- IC50 [5]: > 10000 nM
- IC50 [2]: 83 nM
- Intrinsic clearance (CLint) [6]: 6.7 µL/min/mg
- IC50 [3]: 7560 nM
- t1/2 [7]: 33 min
- IC50 [8]: > 10000 nM
- IC50 [9]: > 10000 nM

Compound: CN(C)c1ccc(CNC(=O)[C@H]2CNC[C@@H]2c2cnc(C(F)(F)F)nc2)cc1 (racemic)
- selectivity ratio [1]: > 111
- IC50 [2]: 450 nM
- IC50 [3]: > 50000 nM

Compound: CN(C)c1ccc(CNC(=O)[C@@H]2CNC[C@H]2c2ccc(Cl)c(Cl)c2)cc1 (racemic)
- IC50 [2]: 130 nM

Compound: C[C@@H]1CC[C@H]2[C@@H](C)C(=O)O[C@@H]3O[C@@]4(C)CC[C@@H]1[C@]32OO4 [ARTEMISININ]
- IC50 [2]: 54 nM

Compound: CCN(CC)CCCC(C)Nc1ccnc2cc(Cl)ccc12 (stereo not drawn) [CHLOROQUINE]
- inhibition in vivo at 10 mg/kg [21]: 95%

Now from value to compound, other results behind:

- IC50 [2]: 11000 nM
Compound: C[C@@H](NC(=O)[C@H]1CNC[C@@H]1c1ccc(C(F)(F)F)nc1)c1ccc(N(C)C)cc1

- IC50 [2]: 5900 nM
Compound: O=C(NCc1ccc(-c2ccccc2)cc1)[C@H]1CNC[C@@H]1c1ccc(C(F)(F)F)nc1

- IC50 [2]: 1200 nM
Compound: O=C(NCc1ccc(Br)cc1)[C@H]1CNC[C@@H]1c1ccc(C(F)(F)F)nc1

- IC50 [2]: 29000 nM
Compound: O=C(NCc1ccc(-n2cccn2)cc1)[C@H]1CNC[C@@H]1c1ccc(C(F)(F)F)nc1

- IC50 [2]: 1000 nM
Compound: CN(C)c1ccc(CNC(=O)[C@H]2CNC[C@@H]2c2ccc(C(F)(F)F)nc2)cn1

- IC50 [2]: 380 nM
Compound: C[C@H](NC(=O)[C@@H]1CNC[C@H]1c1ccc(C(F)(F)F)nc1)c1ccc(N(C)C)cc1

- IC50 [2]: > 20000 nM
Compound: CN(C)Cc1ccc(CNC(=O)[C@H]2CNC[C@@H]2c2ccc(C(F)(F)F)nc2)cc1 (racemic)

- IC50 [2]: 1800 nM
Compound: CN(C)c1ccc(CNC(=O)[C@@H]2CNC[C@H]2c2cccc(Oc3ccccc3)c2)cc1 (racemic)

- IC50 [2]: 1100 nM
Compound: CN(C)c1ccc(CNC(=O)[C@H]2CNC[C@@H]2c2ccc(C(F)(F)F)s2)cc1 (racemic)

- IC50 [2]: 130 nM
Compound: CN(C)c1ccc(CNC(=O)[C@H]2CNC[C@@H]2c2ccc(C(C)(F)F)cc2)cc1 (racemic)

- IC50 [2]: 280 nM
Compound: CN(C)c1ccc(CNC(=O)[C@@H]2CNC[C@H]2c2cnc3ccccc3c2)cc1 (racemic)

- IC50 [2]: 250 nM
Compound: CN(C)c1ccc(CNC(=O)[C@H]2CNC[C@@H]2c2ccc(C(F)F)cc2)cc1 (racemic)

- IC50 [2]: 270 nM
Compound: CN(C)c1ccc(CNC(=O)[C@H]2CNC[C@@H]2c2cc3ccccc3s2)cc1 (racemic)

- IC50 [2]: 5300 nM
Compound: CN(C)c1ccc(CNC(=O)[C@H]2CNC[C@@H]2c2cc(C(F)(F)F)n(C)n2)cc1 (racemic)

- IC50 [2]: 280 nM
Compound: CN(C)c1ccc(CNC(=O)[C@H]2CNC[C@@H]2c2ccc(C(C)(C)C)s2)cc1 (racemic)

- IC50 [2]: 890 nM
Compound: CN(C)c1ccc(CNC(=O)[C@@H]2CNC[C@H]2c2ccc(C(F)(F)F)cc2F)cc1 (racemic)

- IC50 [2]: 150 nM
Compound: CN(C)c1ccc(CNC(=O)[C@H]2CNC[C@@H]2c2cc3ccccc3o2)cc1 (racemic)

- inhibition [14]: inactive
- inhibition [15]: inactive
- IC50 [2]: 360 to 385 nM
- half-life at 1 µM ([7]; liver microsomes): 37 min
- inhibition [17]: inactive
Compound: COc1ccc(CNC(=O)[C@@H]2CNC[C@H]2c2ccc(C(F)(F)F)cc2)cc1 (racemic)
- IC50 [16]: 33000 nM

- IC50 [2]: 4300 nM
Compound: O=C(NCc1ccccc1)[C@@H]1CNC[C@H]1c1ccc(C(F)(F)F)cc1 (racemic)

- IC50 [2]: 230 nM
Compound: CN1CCc2cc(CNC(=O)[C@@H]3CNC[C@H]3c3ccc(C(F)(F)F)cc3)ccc21 (racemic)

- IC50 [2]: 640 nM
Compound: O=C(NCc1ccc(N2CCCC2)cc1)[C@H]1CNC[C@@H]1c1ccc(C(F)(F)F)nc1 (racemic)

- IC50 [2]: 1500 nM
Compound: CN(C)c1ccc(CNC(=O)[C@H]2CNC[C@@H]2c2cnc(C(F)(F)F)s2)cc1 (racemic)

- IC50 [2]: 16000 nM
Compound: CN(C)c1ccc(CNC(=O)[C@@H]2CNC[C@H]2c2ccc(Oc3ccccn3)cc2)cc1 (racemic)

- IC50 [2]: 340 nM
Compound: CN(C)c1ccc(CNC(=O)[C@@H]2CNC[C@H]2c2ccc(C(F)(F)F)cc2Cl)cc1 (racemic)

- IC50 [2]: 190 nM
Compound: CN(C)c1ccc(CNC(=O)[C@@H]2CNC[C@H]2c2ccc(C(C)(C)C)cc2)cc1 (racemic)

- IC50 [2]: 470 nM
Compound: CN(C)c1ccc(CNC(=O)[C@H]2CNC[C@@H]2c2ccc(S(F)(F)(F)(F)F)cc2)cc1 (racemic)

- IC50 [2]: 220 nM
Compound: CN(C)c1ccc(CNC(=O)[C@H]2CNC[C@@H]2c2ccc3sccc3c2)cc1 (racemic)
